# Tested on: male mice B6 Lep ob/ob
# Experiment: In-vivo testing for regulation of triglycerides in blood plasma (obese mice on high fat diet)
# Settings: obese mice fed with high fat diet for 7 weeks; 30 mg/kg/day, p.o., 14 days; whole blood, test strips "Lipid panel"
# Source text: This effect is probed in obese mice fed with high fat diet. In the following paragraphs the method of this study is described.
# The study is done using six weeks old male mice B6 Lep ob/ob, obtained from Charles River (France). Mice are divided in 3 groups: I (control), II (vehicle), III (example 0).
# The animals of the group I receive the standard diet (D-12450B, Research Diets, NJ, USA).
# The animals of the groups II and III are fed with a High Fat Diet (D-12492, Research Diets, NJ, USA), in both cases for 7 weeks (References 1 and 2).
# The animals of the groups III are fed with a High Fat Diet (D-12492, Research Diets, NJ, USA), in both cases for 7 weeks (References 1 and 2).
# At the end of the feeding period of 7 weeks, the treatment period (14 days) is started: Group II mice receive the vehicle (10 ml/kg/day, po, of the aqueous solution of acacia gum, 5% W/V). Group III is administered with 30 mg/kg/day, p.o., of the inventive compound (R)-5-(4-chlorophenyl)-1-(2,4-dichlorophenyl)-4,5-dihydro-pyrazole-3-carboxylic acid according to Example 0. […] The three groups of mice have the same diet than in the previous period.
# At the end of the 14 days period of treatment, the blood levels of triglicerides of the animals are determined. […]
substance,measurement,value
"(S)-5-(4-chlorophenyl)-1-(2,4-dichlorophenyl)-4,5-dihydro-pyrazole-3-carboxylic acid [example 0]",blood levels of triglicerides,inhibitor of high blood levels of triglicerides

# Reference: EP1746090A1, “Sustituted pyrazoline compounds, having predetermined stereochemistry, for reducing triglycerides in blood” (Laboratorios del Dr. Esteve S.A., priority 2005, dated 2007)
